# Results from patent publication US20220387403A1, “COMPOUNDS, COMPOSITIONS AND METHODS FOR TREATING NASH, NAFLD, AND OBESITY” (CVI Pharmaceuticals Limited, priority 2019, published 2022).
# Like-named read-outs stand apart in the source and are kept apart here.
# Experiments:
# hyperlipidemic rabbits [1] = conditions: rabbit, in vivo
# hyperlipidemic rabbits [2] = test: Lipid lowering effects and blood chemistry in hyperlipidemic rabbits; conditions: for serum total cholesterol level: in mM
# LDLR mRNA = LDLR mRNA expression in HepG2 cells, quantitative real-time RT-PCR; type: cell-based, human; conditions: 24 hours; for Activity on LDLR mRNA expression (Fold of control): dose less than or equal to 10 μM; for Activity on LDLR mRNA at 40 uM (fold of control) / Activity on LDLR mRNA at 10 uM (fold of control): mean ± s.d.
# Method: Activities of some compounds of Formulas I, II, III, and IV on LDLR mRNA expression were determined. HepG2 cells were treated with new compounds individually at a dose less than or equal to 10 μM for 24 hours. Total RNA was harvested for quantitative real-time RT-PCR analysis using the method described in Example 16B. […] In these experiments, berberine chloride was included for comparison. […]
# Total RNA was harvested for quantitative real-time RT-PCR analysis using method described in Examples 16B.
# The effects of 23 compounds on the mRNA expressions of LDLR and PCSK9 were examined using quantitative real-time RT-PCR assays. HepG2 cells were treated with various compounds at 10 and 40 uM concentrations for 24 hours. Total RNA was isolated and 2 μg was used to generate cDNA in a reaction containing random primers and M-MLV at 37° C. for 1 h in a volume of 25 μl. Real-time PCR was performed on the cDNA using MCEP REALPLEX 2 SYSTEM (Eppendorf) and Universal MasterMix (Applied Biosystems). Human LDLR, PCSK9, and GAPDH Pre-Developed TaqMan Assay Reagents (Applied Biosystems) were used to assess the levels of mRNA expressions in HepG2. The levels of LDLR and PCSK9 mRNA were normalized to that of GAPDH. Each RNA samples was assayed in duplicate. The fold activity was calculated by dividing mRNA abundance in compound treated cells with that of control.
# HepG2 cells = test: DiI-LDL uptake (LDLR ligand uptake activity) in HepG2 cells; type: cell-based, human; conditions: for Activity on DiI-LDL uptake: A, compound dose ≤ 10 μM, 20 hours
# Method: HepG2 cells (2×10^5 cells/well) in 24-well culture plates were treated with various compounds at indicated concentrations for 20 hours. The fluorescent 1.1′-dioctadecyl-3,3,3′,3′-tetramethylindocarbocyanin perchlorate (DiI-LDL) (Biomedical Technologies, Stoughton, Mass.) at a concentration of 2 μg/mL was added to cells at the end of treatment. After 4 hours, the medium was removed, cells were washed with cold PBS, and were examined immediately under a fluorescent microscope (Nikon) at 200× amplification. The fluorescent intensity in compound-treated cells was compared to that in untreated control cells. […] In these experiments berberine chloride was used for comparison.
# The combined beneficial effects of these novel compounds on elevation of LDLR mRNA levels likely through the mechanism of mRNA stabilization and their inhibitory activity towards PCSK9, the secreted protease that degrades LDLR protein, result in strong increases in LDL ligand uptake activity through increased receptor surface abundance. […] Briefly, HepG2 cells (2×10^5 cells/well) in 24-well culture plates were treated with various compounds at 10 and 40 uM concentrations for 20 hours. The fluorescent 1. 1′-dioctadecyl-3,3,3′, 3′-tetramethylindocarbocyanin perchlorate (DiI-LDL) (Biomedical Technologies, Stoughton, Mass.) at a concentration of 2 μg/ml was added to cells at the end of treatment. After 4 hours, the medium was removed; cells were washed with cold PBS, and were examined immediately under a fluorescent microscope (Nikon) at 200× amplification. The fluorescent intensity in compound-treated cells was compared to that in untreated control cells. […]
# NAFLD hamster model = test: High fat and high cholesterol diet induced NAFLD hamster model; type: in vivo; conditions: C128 10, 20 and 40 mg/kg; fenofibrate 50 mg/kg; 4 weeks
# Method: In a high fat and high cholesterol diet (HFHCD) induced non-alcoholic fat liver disease (NAFLD) hamster model, hamsters were fed a HFHCD for two weeks then treated for 4 weeks with C128 at 10 mg/kg, 20 mg/kg and 40 mg/kg, along with fenofibrate at 50 mg/kg as a positive control. Serum lipids and liver enzymes were measured using standard techniques. Liver tissue histopathology with Oil-red O staining and H&E staining were also performed.
# In a high fat and high cholesterol diet (HFHCD) induced NAFLD hamster model, hamsters were fed a HFHCD for two weeks then treated for 4 weeks with C127 at 80 mg/kg or with fenofibrate 50 mg/kg.
# [3] = after 14 days of drug treatment, mean, n = 6
# [4] = treatment day 0 (before the drug treatment), mean ± SD, n = 6
# [5] = treatment day 4, 128(+)/128(−) 30 mg/kg, SMV/ATV 3 mg/kg once a day oral gavage
# [6] = treatment day 7, 128(+)/128(−) 30 mg/kg, SMV/ATV 3 mg/kg once a day oral gavage
# [7] = treatment day 10, from day 7 128(+)/128(−) 60 mg/kg, SMV/ATV 10 mg/kg
# [8] = treatment day 14, from day 7 128(+)/128(−) 60 mg/kg, SMV/ATV 10 mg/kg
# [9] = 40 uM, 20 hours (second symbol of the cell)
# [10] = 10 uM, 20 hours (first symbol of the cell)
smiles,measurement,setting,value
"CC(C)c1c(C(=O)Nc2ccccc2)c(-c2ccccc2)c(-c2ccc(F)cc2)n1CC[C@@H](O)C[C@@H](O)CC(=O)O [ATV, atorvastatin, reference compound]",ALP,hyperlipidemic rabbits [1],333.5 IU/L
same,ALT,hyperlipidemic rabbits [1],795.6 IU/L
same,AST,hyperlipidemic rabbits [1],767.0 IU/L
same,CK,hyperlipidemic rabbits [1],7270.0 U/L
same,CREA,hyperlipidemic rabbits [1],238.2 µmol/L
same,GLU,hyperlipidemic rabbits [1],6.7 mmol/L
same,LDH,hyperlipidemic rabbits [1],675.0 IU/L
same,HDL-C,hyperlipidemic rabbits [2]; [3],3.6 mmol/L
same,LDL-C,hyperlipidemic rabbits [2]; [3],29.6 mmol/L
same,TC,hyperlipidemic rabbits [2]; [3],33.9 mmol/L
same,TG,hyperlipidemic rabbits [2]; [3],1.7 mmol/L
same,serum total cholesterol level,hyperlipidemic rabbits [2]; [4],28.9 ± 6.0
same,serum total cholesterol level,hyperlipidemic rabbits [2]; [5],26.5 ± 5.2
same,serum total cholesterol level,hyperlipidemic rabbits [2]; [6],31.5 ± 4.9
same,serum total cholesterol level,hyperlipidemic rabbits [2]; [7],32.5 ± 4.5
same,serum total cholesterol level,hyperlipidemic rabbits [2]; [8],33.9 ± 6.5
"COc1ccc2c(c1O)CN1CCc3cc4c(cc3C1C2)OCO4 (stereo not drawn) [Compound 34, 10-methoxy-5,6,7,8,13,13a-hexahydro-2H-1,3-dioxolano[4,5-g]isoquinolino[3,2-a]isoqunolin-9-ol]",Activity on LDLR mRNA expression (Fold of control),LDLR mRNA,1.76 ± 0.17 Fold of control
same,Activity on DiI-LDL uptake,HepG2 cells,++
"COc1ccc2c(c1OC(=O)NC(C)C)CN1CCc3cc4c(cc3C1C2)OCO4 (stereo not drawn) [Compound 41, (10-methoxy(5,6,7,8,13,13a-hexahydro-2H-1,3-dioxolano[4,5-g]isoquinolino[3,2-a]isoquinolin-9-yloxy))-N-(methylethyl)carboxamide]",Activity on LDLR mRNA expression (Fold of control),LDLR mRNA,1.60 ± 0.03 Fold of control
same,Activity on DiI-LDL uptake,HepG2 cells,++
"COc1ccc2c(c1OC(=O)N(C)C)CN1CCc3cc4c(cc3C1C2)OCO4 (stereo not drawn) [Compound 43, (10-methoxy(5,6,7,8,13,13a-hexahydro-2H-1,3-dioxolano[4,5-g]isoquinolino[3,2-a]isoquinolin-9-yloxy))-N,N-dimethylcarboxamide]",Activity on LDLR mRNA expression (Fold of control),LDLR mRNA,1.95 ± 0.18 Fold of control
same,Activity on DiI-LDL uptake,HepG2 cells,++
"COc1ccc2c(c1OC(=O)Nc1ccc(OC(F)(F)F)cc1)CN1CCc3cc4c(cc3C1C2)OCO4 (stereo not drawn) [Compound 44, (10-methoxy(5,6,7,8,13,13a-hexahydro-2H-1,3-dioxolano[4,5-g]isoquinolino[3,2-a]isoquinolin-9-yloxy))-N-[4-(trifluoromethoxy)phenyl]carbox-amide]",Activity on LDLR mRNA expression (Fold of control),LDLR mRNA,2.20 ± 0.06 Fold of control
same,Activity on DiI-LDL uptake,HepG2 cells,++
COc1cc(NC(=O)Oc2c(OC)ccc3c2CN2CCc4cc5c(cc4C2C3)OCO5)cc(OC)c1 (stereo not drawn) [Compound 45],Activity on LDLR mRNA expression (Fold of control),LDLR mRNA,2.09 ± 0.11 Fold of control
same,Activity on DiI-LDL uptake,HepG2 cells,++
"COc1ccc2c(c1OC(=O)Nc1cccc(C)c1)CN1CCc3cc4c(cc3C1C2)OCO4 (stereo not drawn) [Compound 46, (10-methoxy(5,6,7,8,13,13a-hexahydro-2H-1,3-dioxolano[4,5-g]isoquinolino[3,2-a]isoquinolin-9-yloxy))-N-(3-methylphenyl)carboxamide]",Activity on LDLR mRNA expression (Fold of control),LDLR mRNA,1.80 ± 0.16 Fold of control
same,Activity on DiI-LDL uptake,HepG2 cells,++
"CCOC(=O)Oc1c(OC)ccc2c1CN1CCc3cc4c(cc3C1C2)OCO4 (stereo not drawn) [Compound 48, 10-methoxy-5,6,7,8,13,13a-hexahydro-2H-1,3-dioxolano[4,5-g]isoquinolino[3,2-a]isoquinolin-9-yl ethoxyformate]",Activity on LDLR mRNA expression (Fold of control),LDLR mRNA,1.45 ± 0.15 Fold of control
"COc1ccc2c(c1OC(=O)Nc1ccccc1)CN1CCc3cc4c(cc3C1C2)OCO4 (stereo not drawn) [Compound 61, (10-methoxy(5,6,7,8,13,13a-hexahydro-2H-1,3-dioxolano[4,5-g]isoquinolino[3,2-a]isoquinolin-9-yloxy))-N-benzamide]",Activity on LDLR mRNA expression (Fold of control),LDLR mRNA,1.33 ± 0.53 Fold of control
"COc1ccc2c(c1)CCN1Cc3c(ccc(OC)c3OS(=O)(=O)c3ccccc3)CC21 (stereo not drawn) [Compound 115, 3,10-Dimethoxy-5,6,7,8,13,13a-hexahydroisoquinolino[2,1-b]isoquinolin-9-yl benzenesulfonate]",Activity on LDLR mRNA at 40 uM (fold of control),LDLR mRNA,2.65 ± 0.06 fold of control
same,Activity in LDL uptake (relative to control),HepG2 cells; [9],+++
"COc1ccc2c(c1OS(=O)(=O)c1ccccc1)CN1CCc3cc4c(cc3C1C2)OCCO4 (stereo not drawn) [Compound 116, 11-Methoxy-6,7,8,9,14,14a-hexahydro-2H,3H-1,4-dioxano[5,6-g]isoquinolino[3,2-a]isoquinolin-10-yl benzenesulfonate]",Activity in LDL uptake (relative to control),HepG2 cells; [10],+++/+++
same,Activity in LDL uptake (relative to control),HepG2 cells; [9],+++/+++
"COc1ccc2c(c1OS(=O)(=O)c1ccccc1)CN1CCc3cc(C)ccc3C1C2 (stereo not drawn) [Compound 121, 10-Methoxy-3-methyl-5,6,7,8,13,13a-hexahydroisoquinolino[2,1-b]isoquinolin-9-yl benzenesulfonate]",Activity on LDLR mRNA at 10 uM (fold of control),LDLR mRNA,3.56 ± 0.03 fold of control
same,Activity on LDLR mRNA at 40 uM (fold of control),LDLR mRNA,3.43 ± 0.81 fold of control
"COc1cc2c(cc1OC)C1C(C)c3ccc(OC)c(OS(=O)(=O)c4ccccc4)c3CN1CC2 (stereo not drawn) [Compound 139, 2,3,10-Trimethoxy-13-methyl-5,6,7,8,13,13a-hexahydro-isoquinolino[2,1-b]isoquinolin-9-yl benzensulfonate]",Activity on LDLR mRNA at 10 uM (fold of control),LDLR mRNA,11.5 ± 1.29 fold of control
same,Activity on LDLR mRNA at 40 uM (fold of control),LDLR mRNA,3.02 ± 0.34 fold of control
"COc1ccc2c(c1)CCN1Cc3c(ccc(OC)c3OS(=O)(=O)c3ccccc3)C(C)C21 (stereo not drawn) [Compound 140, 3,10-Dimethoxy-13-methyl-5,6,7,8,13,13a-hexahydro-isoquinolino[2,1-b]isoquinolin-9-yl benzenesulfonate]",Activity on LDLR mRNA at 10 uM (fold of control),LDLR mRNA,6.65 ± 0.68 fold of control
"COc1ccc2c(c1)CCN1Cc3c(cccc3OS(=O)(=O)c3cccc(F)c3)CC21 (stereo not drawn) [Compound 150, 3-methoxy-5,6,7,8,13,13a-hexahydroisoquinolino[2,1-b]isoquinolin-9-yl 3-fluorobenzenesulfonate]",Activity in LDL uptake (relative to control),HepG2 cells; [10],+/+
same,Activity in LDL uptake (relative to control),HepG2 cells; [9],+/+
"CCC(C)(C)C(=O)O[C@H]1C[C@@H](C)C=C2C=C[C@H](C)[C@H](CC[C@@H]3C[C@@H](O)CC(=O)O3)[C@H]21 [SMV, simvastatin, reference compound]",CK,hyperlipidemic rabbits [1],6492.8 U/L
same,GLU,hyperlipidemic rabbits [1],7.9 mmol/L
same,ALP,hyperlipidemic rabbits [2]; [3],288.7 IU/L
same,CREA,hyperlipidemic rabbits [2]; [3],242.2 µmol/L
same,HDL-C,hyperlipidemic rabbits [2]; [3],2.9 mmol/L
same,LDH,hyperlipidemic rabbits [2]; [3],530.3 IU/L
same,LDL-C,hyperlipidemic rabbits [2]; [3],23.3 mmol/L
same,TC,hyperlipidemic rabbits [2]; [3],26.2 mmol/L
same,TG,hyperlipidemic rabbits [2]; [3],1.7 mmol/L
same,serum total cholesterol level,hyperlipidemic rabbits [2]; [4],28.8 ± 7.4
same,serum total cholesterol level,hyperlipidemic rabbits [2]; [5],24.8 ± 6.1
same,serum total cholesterol level,hyperlipidemic rabbits [2]; [6],26.1 ± 4.4
same,serum total cholesterol level,hyperlipidemic rabbits [2]; [7],25.4 ± 6.1
same,serum total cholesterol level,hyperlipidemic rabbits [2]; [8],26.2 ± 5.5
"CN1CCc2cc3c(cc2[C@H]1[C@@H]1O[C@H](O)c2c1ccc1c2OCO1)OCO3 [d-(+)-EGN, (+)-egenine]",Activity on DiI-LDL uptake,HepG2 cells,+
"CC(C)OC(=O)C(C)(C)Oc1ccc(C(=O)c2ccc(Cl)cc2)cc1 [fenofibrate, reference compound]",Body and liver weights,NAFLD hamster model,elevated by a statistically significant amount
